# Results from US20220089609A1, “SUBSTITUTED QUINAZOLINONE DERIVATIVES AND THEIR USE AS POSITIVE ALLOSTERIC MODULATORS OF MGLUR4” (DOMAIN THERAPEUTICS, priority 2018, published 2022).
# Structures can show the parent of a compound that is named as a salt.
# Target: T1, human mGluR4 (hmGluR4) (Homo sapiens, UniProt Q14833)
# T1 construct: expressed in transfected cells; host or cells: HEK-293 cells, transient co-transfection by electroporation
# Experiment: Calcium assay EC50 determination, positive allosteric modulator activity on hmGluR4 transiently over-expressed in HEK-293 cells
# Type: cell-based
# Conditions: PAM mode with EC20 glutamate; hmGluR4 in HEK-293 cells; intracellular calcium (Fluo4AM); read-out: mGluR4 positive allosteric modulator activity, half maximal effective concentration (EC50)
# Description: Compounds are tested successively for their agonist and positive allosteric modulator activities on human mGluR4 (hmGluR4) transiently over-expressed in HEK-293 cells. Compounds exert agonist activity if, by themselves in absence of glutamate, they are able to activate hmGluR4; and they exert positive allosteric modulator activity if they increase the action of glutamate.
# HEK-293 cells are maintained in Modified Eagle's Medium supplemented with 10% Foetal Calf Serum, 1% Penicillin/Streptomycin and 1% non-essential amino acids at 37° C./5% CO2.
# Cells are co-transfected by electroporation with four DNA plasmids encoding hmGluR4, a chimeric G protein allowing redirection of the activation signal to intracellular calcium pathway, and glutamate transporters to decrease extracellular glutamate concentration so as to limit receptor desensitization. After transfection, cells are cultured for 24 h at 37° C./5% CO2.
# Calcium Assay EC50 determination
# Receptor activity is detected by changes in intracellular calcium measured using the fluorescent Ca^2+ sensitive dye, Fluo4AM (Molecular Probes).
# On the day of the assay, culture medium is aspirated and replaced during 3 hours by medium without serum supplemented with 1% Glutamax, 1% Penicillin/Streptomycin and 1% non-essential amino acids. Then, cells are washed with freshly prepared buffer B (HBSS 1× (PAA), Hepes 20 mM, MgSO4-7H2O 1 mM, Na2CO3 3.3 mM, CaCl2-2H2O 1.3 mM, 0.1% BSA, Probenecid 2.5 mM) and loaded at 37° C. in 5% CO2 for 1.5 hours with buffer B containing 1 μM Fluo4AM, 0.1 mg/mL Pluronic Acid, 7 μg/mL Glutamate Pyruvate Transaminase and 2 mM sodium pyruvate. Afterwards cells are washed twice with buffer B. Then cells are detached using StemPro Accutase (Fisher Scientific), resuspended in buffer B and seeded in 384 well plate at a density of 30,000 cells per well. Addition of compounds and intracellular Ca^2+ measurements (excitation 485 nm, emission 525 nm) are performed by the fluorescence microplate reader FLIP^Tetra (Molecular Devices).
# Agonist and positive allosteric modulator activities of compounds are consecutively evaluated on the same cell plate. Agonist activity is first tested during 10 minutes with the addition of compound alone on the cells. Then, cells are stimulated by an EC20 glutamate concentration and fluorescence is recorded for additional 3 minutes. EC20 glutamate concentration is the concentration giving 20% of the maximal glutamate response. Agonist or positive allosteric modulator activity(ies) are evaluated in comparison to basal signals evoked by buffer B or EC20 glutamate alone, respectively.
# T1 sequence (Q14833 33-912): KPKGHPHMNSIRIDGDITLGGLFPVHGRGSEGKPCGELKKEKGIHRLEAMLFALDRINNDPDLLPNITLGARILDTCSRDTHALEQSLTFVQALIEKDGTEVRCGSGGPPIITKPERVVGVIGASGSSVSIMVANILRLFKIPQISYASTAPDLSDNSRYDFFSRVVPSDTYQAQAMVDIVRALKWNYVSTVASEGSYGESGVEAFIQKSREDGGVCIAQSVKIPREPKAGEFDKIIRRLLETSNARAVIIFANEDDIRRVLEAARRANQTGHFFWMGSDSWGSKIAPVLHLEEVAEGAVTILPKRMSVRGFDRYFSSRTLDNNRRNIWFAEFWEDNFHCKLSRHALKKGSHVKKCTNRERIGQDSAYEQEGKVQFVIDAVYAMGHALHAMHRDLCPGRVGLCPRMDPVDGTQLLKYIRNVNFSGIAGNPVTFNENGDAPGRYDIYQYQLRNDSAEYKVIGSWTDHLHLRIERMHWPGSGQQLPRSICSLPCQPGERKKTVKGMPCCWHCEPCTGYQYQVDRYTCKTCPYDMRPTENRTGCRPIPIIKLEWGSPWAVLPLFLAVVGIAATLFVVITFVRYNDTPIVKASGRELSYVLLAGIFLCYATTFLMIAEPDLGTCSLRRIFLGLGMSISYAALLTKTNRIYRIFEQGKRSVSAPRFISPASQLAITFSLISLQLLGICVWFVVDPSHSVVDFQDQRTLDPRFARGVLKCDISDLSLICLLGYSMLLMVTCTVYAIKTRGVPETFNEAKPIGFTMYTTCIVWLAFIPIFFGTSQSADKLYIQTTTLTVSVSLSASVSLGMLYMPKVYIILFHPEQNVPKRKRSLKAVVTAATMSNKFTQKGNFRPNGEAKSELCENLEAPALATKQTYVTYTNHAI
row,SMILES,EC50
1,"O=c1[nH]c(-c2cc(C(F)(F)F)ccn2)nc2ccc(OCCC3CCOCC3)cc12 [Compound 58, 6-[2-(Tetrahydro-pyran-4-yl)-ethoxy]-2-(4-trifluoromethyl-pyridin-2-yl)-3H-quinazolin-4-one]",100 to 1000 nM
2,"O=c1[nH]c(-c2cc3ccsc3cn2)nc2ccc(OCCCc3ccncc3F)cc12 [Compound 59, 6-[3-(3-Fluoro-pyridin-4-yl)-propoxy]-2-thieno[2,3-c]pyridin-5-yl-3H-quinazolin-4-one]",100 to 1000 nM
3,"Cc1cc(CCCOc2ccc3nc(-c4cc5ccsc5cn4)[nH]c(=O)c3c2)ccn1 [Compound 63, 6-[3-(2-Methyl-pyridin-4-yl)-propoxy]-2-thieno[2,3-c]pyridin-5-yl-3H-quinazolin-4-one hydrochloride]",100 to 1000 nM
4,"Cc1cc(OCCCc2ccncc2)cc2c(=O)[nH]c(-c3cc4ccsc4cn3)nc12 [Compound 65, 8-Methyl-6-(3-pyridin-4-yl-propoxy)-2-thieno[2,3-c]pyridin-5-yl-3H-quinazolin-4-one hydrochloride]",≤ 100 nM
5,"O=c1[nH]c(-c2cc3ccsc3cn2)nc2ccc(OCCCc3ccncc3)nc12 [Compound 66, 6-(3-Pyridin-4-yl-propoxy)-2-thieno[2,3-c]pyridin-5-yl-3H-pyrido[3,2-d]pyrimidin-4-one hydrochloride]",100 to 1000 nM
6,"O=c1[nH]c(-c2cc(C(F)(F)F)ccn2)nc2ncc(OCCCc3ccncc3)cc12 [Compound 68, 6-(3-Pyridin-4-yl-propoxy)-2-(4-trifluoromethyl-pyridin-2-yl)-3H-pyrido[2,3-d]pyrimidin-4-one hydrochloride]",> 10000 nM
7,"O=c1[nH]c(-c2cc(C(F)(F)F)ccn2)nc2cnc(OCCCc3ccncc3)cc12 [Compound 69, 6-(3-Pyridin-4-yl-propoxy)-2-(4-trifluoromethyl-pyridin-2-yl)-3H-pyrido[3,4-d]pyrimidin-4-one hydrochloride]",100 to 1000 nM
8,"O=c1[nH]c(-c2cc3ccsc3cn2)nc2cc(C(F)(F)F)c(OCCCc3ccncc3)cc12 [Compound 70, 6-(3-Pyridin-4-yl-propoxy)-2-thieno[2,3-c]pyridin-5-yl-7-trifluoromethyl-3H-quinazolin-4-one hydrochloride]",1000 to 10000 nM
9,"O=c1[nH]c(-c2cc3ccsc3cn2)nc2ccc(OCCCc3ccncc3)c(Cl)c12 [Compound 71, 5-Chloro-6-(3-pyridin-4-yl-propoxy)-2-thieno[2,3-c]pyridin-5-yl-3H-quinazolin-4-one hydrochloride]",> 10000 nM
10,"O=c1[nH]c(-c2cc3ccsc3cn2)nc2c(Cl)cc(OCCCc3ccncc3)cc12 [Compound 72, 8-Chloro-6-(3-pyridin-4-yl-propoxy)-2-thieno[2,3-c]pyridin-5-yl-3H-quinazolin-4-one hydrochloride]",100 to 1000 nM
11,"O=c1[nH]c(-c2cc3ccsc3cn2)nc2c(C3CC3)cc(OCCCc3ccncc3)cc12 [Compound 73, 8-Cyclopropyl-6-(3-pyridin-4-yl-propoxy)-2-thieno[2,3-c]pyridin-5-yl-3H-quinazolin-4-one hydrochloride]",100 to 1000 nM
12,"CCc1cc(OCCCc2ccncc2)cc2c(=O)[nH]c(-c3cc4ccsc4cn3)nc12 [Compound 74, 8-Ethyl-6-(3-pyridin-4-yl-propoxy)-2-thieno[2,3-c]pyridin-5-yl-3H-quinazolin-4-one hydrochloride]",100 to 1000 nM
13,"O=c1[nH]c(-c2cc3ccsc3cn2)nc2c(F)cc(OCCCc3ccncc3)cc12 [Compound 75, 8-Fluoro-6-(3-pyridin-4-yl-propoxy)-2-thieno[2,3-c]pyridin-5-yl-3H-quinazolin-4-one]",100 to 1000 nM
14,"Cc1cc(OCC2CCOCC2)cc2c(=O)[nH]c(-c3cc4ccsc4cn3)nc12 [Compound 76, 8-Methyl-6-(tetrahydro-pyran-4-ylmethoxy)-2-thieno[2,3-c]pyridin-5-yl-3H-quinazolin-4-one]",≤ 100 nM
15,"Cc1cc(OCCC2COC2)cc2c(=O)[nH]c(-c3cc4ccsc4cn3)nc12 [Compound 77, 8-Methyl-6-(2-oxetan-3-yl-ethoxy)-2-thieno[2,3-c]pyridin-5-yl-3H-quinazolin-4-one]",100 to 1000 nM
16,"Cc1cc(OCCC2CCOC2)cc2c(=O)[nH]c(-c3cc4ccsc4cn3)nc12 (stereo not drawn) [Compound 78, 8-Methyl-6-[2-(tetrahydro-furan-3-yl)-ethoxy]-2-thieno[2,3-c]pyridin-5-yl-3H-quinazolin-4-one]",≤ 100 nM
17,"Cc1cc(OCCC2CCOCC2)cc2c(=O)[nH]c(-c3cc4ccsc4cn3)nc12 [Compound 79, 8-Methyl-6-[2-(tetrahydro-pyran-4-yl)-ethoxy]-2-thieno[2,3-c]pyridin-5-yl-3H-quinazolin-4-one]",100 to 1000 nM
18,"Cc1cc(OCC2CCOC2)cc2c(=O)[nH]c(-c3cc4ccsc4cn3)nc12 (stereo not drawn) [Compound 80, 8-Methyl-6-(tetrahydro-furan-3-ylmethoxy)-2-thieno[2,3-c]pyridin-5-yl-3H-quinazolin-4-one]",≤ 100 nM
19,"Cc1cc(OC[C@@H]2CCOC2)cc2c(=O)[nH]c(-c3cc4ccsc4cn3)nc12 [Compound 80-R, R-8-Methyl-6-(tetrahydro-furan-3-ylmethoxy)-2-thieno[2,3-c]pyridin-5-yl-3H-quinazolin-4-one]",≤ 100 nM
20,"Cc1cc(OC[C@H]2CCOC2)cc2c(=O)[nH]c(-c3cc4ccsc4cn3)nc12 [Compound 80-S, S-8-Methyl-6-(tetrahydro-furan-3-ylmethoxy)-2-thieno[2,3-c]pyridin-5-yl-3H-quinazolin-4-one]",≤ 100 nM
21,"CCC(=O)N1CC[C@H](Oc2cc(C)c3nc(-c4cc5ccsc5cn4)[nH]c(=O)c3c2)C1 [Compound 82-S, S-8-Methyl-6-(1-propionyl-pyrrolidin-3-yloxy)-2-thieno[2,3-c]pyridin-5-yl-3H-quinazolin-4-one]",≤ 100 nM
22,"Cc1cc(O[C@@H]2CCN(C3COC3)C2)cc2c(=O)[nH]c(-c3cc4ccsc4cn3)nc12 [Compound 83-R, R-8-Methyl-6-(1-oxetan-3-yl-pyrrolidin-3-yloxy)-2-thieno[2,3-c]pyridin-5-yl-3H-quinazolin-4-one]",100 to 1000 nM
23,"Cc1cc(O[C@H]2CCN(C3COC3)C2)cc2c(=O)[nH]c(-c3cc4ccsc4cn3)nc12 [Compound 83-S, S-8-Methyl-6-(1-oxetan-3-yl-pyrrolidin-3-yloxy)-2-thieno[2,3-c]pyridin-5-yl-3H-quinazolin-4-one]",≤ 100 nM
24,"Cc1cc(OCCN2CCC3(CC2)COC3)cc2c(=O)[nH]c(-c3cc4ccsc4cn3)nc12 [Compound 84, 8-Methyl-6-[2-(2-oxa-7-aza-spiro[3.5]non-7-yl)-ethoxy]-2-thieno[2,3-c]pyridin-5-yl-3H-quinazolin-4-one]",100 to 1000 nM
25,"Cc1cc(OCC2CCN(C3COC3)CC2)cc2c(=O)[nH]c(-c3cc4ccsc4cn3)nc12 [Compound 86, 8-Methyl-6-(1-oxetan-3-yl-piperidin-4-ylmethoxy)-2-thieno[2,3-c]pyridin-5-yl-3H-quinazolin-4-one]",≤ 100 nM
26,"CCC(=O)N1CCC(COc2cc(C)c3nc(-c4cc5ccsc5cn4)[nH]c(=O)c3c2)CC1 [Compound 87, 8-Methyl-6-(1-propionyl-piperidin-4-ylmethoxy)-2-thieno[2,3-c]pyridin-5-yl-3H-quinazolin-4-one]",100 to 1000 nM
27,"Cc1cc(OCC2CCN(S(C)(=O)=O)CC2)cc2c(=O)[nH]c(-c3cc4ccsc4cn3)nc12 [Compound 88, 6-(1-Methanesulfonyl-piperidin-4-ylmethoxy)-8-methyl-2-thieno[2,3-c]pyridin-5-yl-3H-quinazolin-4-one]",≤ 100 nM
28,"Cc1cc(N2CCC3(CC2)COC3)cc2c(=O)[nH]c(-c3cc4ccsc4cn3)nc12 [Compound 89, 8-Methyl-6-(2-oxa-7-aza-spiro[3.5]non-7-yl)-2-thieno[2,3-c]pyridin-5-yl-3H-quinazolin-4-one]",≤ 100 nM
29,"Cc1cc(N2CC3(CCOC3)C2)cc2c(=O)[nH]c(-c3cc4ccsc4cn3)nc12 [Compound 90, 8-Methyl-6-(6-oxa-2-aza-spiro[3.4]oct-2-yl)-2-thieno[2,3-c]pyridin-5-yl-3H-quinazolin-4-one]",≤ 100 nM
30,"Cc1cc(N2CCC3(CCOCC3)CC2)cc2c(=O)[nH]c(-c3cc4ccsc4cn3)nc12 [Compound 91, 8-Methyl-6-(3-oxa-9-aza-spiro[5.5]undec-9-yl)-2-thieno[2,3-c]pyridin-5-yl-3H-quinazolin-4-one]",≤ 100 nM
